The text below walks through data of US20070254914A1, “Low-concentration atropine solution for preventing myopia progression and preparing method thereof” (Non-Profit Organization Chang Gung Memorial Hospital, priority 2006, published 2007).

Counter-ions that a name gives are not always drawn. Like-named read-outs stand apart in the source and are kept apart here.

In one data set the test system is mydriasis phenomenon. Briefly: durations of mydriasis phenomenon in administration of different ingredients for preventing myopia progression. The format is in vivo, human.
Data set [1] concerns patients (pupil diameter). The data set can be described thus: mydriasis phenomenon (pupil diameter) after administration of different atropine concentrations. The class given is in vivo, human.
The test system of data set [2] is patients (myopia progression). The data set can be described thus: study of the present invention in 2006: myopia progression in patients treated with 0.05% atropine solution. The format is in vivo, human. Conditions: for Increased diopter (D) per year: 0.05% (w/w) atropine solution. The source says:
With regard to Table 2, 21 patients (42 eyes) were subject in the treatment group and 36 patients were subject in the control group. All patients are residents in southern Taiwan. Male-female ratios in the treatment group and the control group were respectively 12:9 and 18:18.
Wherein, an average age in the treatment group was 8.38±1.47 years old (range from 6 to 12 years old) and an average age in the control group was 8.11±1.12 years old (range from 6 to 12 years old).
Treating periods of the treatment group and the control group in average are respectively 19.95±9.04 months and 21.47±10.02.

The subject of the next data set is Myopic Children. The note with it: Shin's study 1999, cited from earlier work.
A further data set concerns patients (photophobia). Briefly: photophobia ratios with administration of different atropine concentrations. The class given is in vivo, human. The text has this: According to following Table 6, patients treated with 0.05% (w/w) atropine solution suffered the photophobia in a lower ratio in comparison with ones treated with 0.1% (w/w) atropine solution.
The subject of data set [3] is patients (accommodation capability of eyes). Briefly: influences on accommodation capability with administration of different atropine concentrations. The format is in vivo, human. Here is the method:
Moreover, the myopia exacerbation also substantially relates to visual distance during near working that the patient continuously overuses high accommodation capability of eyes.
With regard to Table 4, 21 patients were treated with 0.05% (w/w) atropine solution in a first treatment group, 9 patients were treated with 0.1% (w/w) atropine solution in a second treatment group and 6 patients were treated with blank solution in the control group. Male-female ratios in the treatment groups and the control group were respectively […] in the first treatment group, 5:4 in the second treatment group and 3:3 in the control group.
Wherein, average ages were respectively 9.4±1.7 years old in the first treatment group, 11±1.7 years old in the second treatment group and 10±2 years old in the control group.
Treating periods of the treatment groups in average were respectively 22.43±12.9 months in the first treatment group and 25.88±12.47 months in the second treatment group.
Observation timing after applying the atropine solutions were respectively 16.37±2.53 hours in the first treatment group and 17.11±1.9 hours in the second treatment group.

Setting [4] is: marketed concentrations as listed in Table 7 (Soln/Ointment 0.5%-3%).

Turning to `CN1[C@@H]2CC[C@H]1C[C@@H](OC(=O)C(CO)c1ccccc1)C2` (stereo partly shown) [Atropine, atropine], the Duration of mydriasis lay in the range of 7 to 14 days in the data set with mydriasis phenomenon (1% (w/w) atropine solution) and 0.5 to 0.75 days in the data set with mydriasis phenomenon (Soln, 0.05% (w/w), listed as atropine). The figures for the Pupil diameter in data set [1] (0.05% atropine solution) and in data set [1] (0.1% atropine solution) were 5.52 mm and 6.10 mm, respectively. In addition, the “Increased diopter (D) per year” value in data set [2] (1st (yearly follow-up)) is 0.34(D/yr); in data set [2] (2nd (yearly follow-up)) it was 0.32(D/yr); in data set [2] (3rd (yearly follow-up)) it was 0.14(D/yr); in data set [2] (All (average)), 0.29(D/yr). In addition, the Myopia progression in data set [2] (0.05% atropine solution, 21 patients (42 eyes), 6 to 12 years old, treating period 19.95±9.04 months) is listed as 0.28(diopter/yr); with Myopic Children (0.1% atropine solution), 0.47 diopter/yr; with Myopic Children (0.25% atropine solution), 0.45 diopter/yr; in the data set with Myopic Children (0.5% atropine solution), 0.04 diopter/yr. Further, the Photophobia ratio in the data set on patients (photophobia) (0.05% atropine solution) is 66.67%; with patients (photophobia) (0.1% atropine solution), 85.71%. Moreover, the Accommodation capability in data set [3] (0.05% atropine solution, observed 16.37±2.53 hours after applying, treating period 22.43±12.9 months) is 2.45(D); in data set [3] (0.1% atropine solution, observed 17.11±1.9 hours after applying, treating period 25.88±12.47 months), 2.22(D).
Take `CN1[C@@H]2CC[C@H]1C[C@@H](OC(=O)C(CO)c1ccccc1)C2` (stereo partly shown) [Atropine sulfate]: the “Occurring time (mydriasis)” value in the data set on mydriasis phenomenon (Soln, 0.05%) is 45 to 120 min; in the data set with mydriasis phenomenon (setting [4]), 45 to 120 min. The Duration of mydriasis lay in the range of 0.5 to 0.75 days with mydriasis phenomenon (Soln, 0.05% (w/w)) and 7 to 14 days with mydriasis phenomenon (setting [4]).
Take `CN(C)CCOC(=O)C(c1ccccc1)C1(O)CCCC1` (stereo not shown) [Cyclopentolate Hydrochloride]: in the data set with mydriasis phenomenon (human, in vivo), the Duration of mydriasis worked out at 2 days and the “Occurring time (mydriasis)” value fell in the range of 30 to 60 min.
